According to the CombiSolv-Exp solvation set (Vermeire and Green 2021):

Test: solvent given as SMILES

CCCCC(C)C
Settings	solvation free energy, 298 K [kJ/mol]
in C=CCCCCCCCCCCCCCC	-16.6
in CC#N	-12.5
in O	12.3

CCCCCCCCCCCCCCC
Settings	solvation free energy, 298 K [kJ/mol]
in O	17.9

CCCCCC(C)=O
Settings	solvation free energy, 298 K [kJ/mol]
in CC(C)CCCC(C)CCCC(C)CCCCC(C)CCCC(C)CCCC(C)C	-20.9
in CCCCCC	-22.4
in CCCCCCC	-21.8
in CCCCCCCC	-22
in CCCCCCCCCC	-21.7
in CCCCCCCCCCCCCCCC	-21.2
in CCCCCCCCO	-23.6
in CCCCOCCCC	-24
in CO	-25
in NC=O	-19.9
in O	-12.9
in [2H]O[2H]	-12.8

CCCCOC(C)=O
Settings	solvation free energy, 298 K [kJ/mol]
in CC(=O)N(C)C	-21.9
in CC(C)CCCC(C)CCCC(C)CCCCC(C)CCCC(C)CCCC(C)C	-18.9
in CCCCC(CC)COC(=O)CCCCC(=O)OCC(CC)CCCC	-20.5
in CCCCCC	-20.7
in CCCCCCC	-20.6
in CCCCCCCC	-20.5
in CCCCCCCCC=CCCCCCCCC(=O)OCC(COC(=O)CCCCCCCC=CCCCCCCCC)OC(=O)CCCCCCCC=CCCCCCCCC	-21.2
in CCCCCCCCCC	-19.9
in CCCCCCCCCCCCCCCC	-18.9
in CCCCCCCCO	-21
in CCCCN(C=O)CCCC	-21.9
in CNC(C)=O	-21.5
in CO	-22.4
in NC=O	-17
in O	-11.1
in [2H]O[2H]	-11.5

Clc1ccc2c(c1)Oc1c(Cl)c(Cl)c(Cl)c(Cl)c1O2
Settings	solvation free energy, 298 K [kJ/mol]
in O	-17.4

C=CCCCCC
Settings	solvation free energy, 298 K [kJ/mol]
in C1CCC2CCCCC2C1	-18.3
in C1CCC(C2CCCCC2)CC1	-18.1
in C=CCCCCCCCCCCCCCC	-17.4
in CC#N	-14.4
in CCC#N	-16.9
in CCCC#N	-15.8
in CCCCC(CC)COC(=O)CCCCC(=O)OCC(CC)CCCC	-16.9
in CCCCC(CC)COC(=O)c1ccccc1C(=O)OCC(CC)CCCC	-15.8
in CCCCCCC	-18.8
in CCCCCCCCC=CCCCCCCCC(=O)OCC(COC(=O)CCCCCCCC=CCCCCCCCC)OC(=O)CCCCCCCC=CCCCCCCCC	-17
in CCCCCO	-16.4
in CCCCOC(=O)c1ccccc1C(=O)OCCCC	-16.7
in CCCCOC(C)=O	-17.9
in CCN1CCCC1=O	-15.6
in CCOC(=O)c1ccccc1C(=O)OCC	-14.8
in CCOC(C)=O	-17
in CN1CCCC1=O	-14.5
in CN(C)C=O	-14.1
in CS(C)=O	-10.5
in N#CCCCCC#N	-11.7
in N#Cc1ccccc1	-16.4
in NC=O	-5.19
in NCCO	-6.82
in Nc1ccccc1	-13.6
in O	6.95
in O=C1CCCO1	-12.6
in O=CN1CCOCC1	-12.1
in O=Cc1ccco1	-13.4
in OCCO	-6.07
in OCCOCCO	-8.79
in OCCOCCOCCO	-9.5
in OCCOCCOCCOCCO	-10
in OCc1ccco1	-13
in c1ccc2c(c1)CCCC2	-18.3
in c1ccc(C2CCCCC2)cc1	-18

CC(C)Cc1ccc(C(C)C(=O)O)cc1 (stereo not drawn)
Settings	solvation free energy, 298 K [kJ/mol]
in CC(C)CO	-55.4
in CC(C)O	-55.9
in CCC(C)O	-55.4
in CCCCCCCCCCO	-54.3
in CCCCCCCO	-54.9
in CCCCCCO	-55.1
in CCCCCO	-54.9
in CCCCO	-54.9
in CCCO	-55
in CCO	-54.7
in CN(C)C=O	-54.7
in CO	-54.6
in Clc1ccccc1	-49.7
in NC=O	-45.7
in O	-29.3

CN(C)c1ccc(C(=O)O)cc1
Settings	solvation free energy, 298 K [kJ/mol]
in CN(C)C=O	-57.7
in O	-38.8

CCc1ccccc1O
Settings	solvation free energy, 298 K [kJ/mol]
in CCCCCC	-27.6
in O	-24.5

CCCOC(=O)CCC
Settings	solvation free energy, 298 K [kJ/mol]
in O	-9.54

Clc1ccc(-c2ccc(Cl)c(Cl)c2)cc1Cl
Settings	solvation free energy, 298 K [kJ/mol]
in O	-15.1

CCOC
Settings	solvation free energy, 298 K [kJ/mol]
in O	-8.79

C=CC(C)=CCC=C(C)CCC=C(C)C
Settings	solvation free energy, 298 K [kJ/mol]
in O	-4.44

COCCOC(=O)c1ccccc1C(=O)OCCOC
Settings	solvation free energy, 298 K [kJ/mol]
in O	-56.4

C=C(C)C1CCC(C)C(=O)C1 (stereo not drawn)
Settings	solvation free energy, 298 K [kJ/mol]
in O	-15.7

ClCCl
Settings	solvation free energy, 298 K [kJ/mol]
in C1CCOC1	-17.9
in C1COCCO1	-17.1
in C=CCCCCCCCCCCCCCC	-11.6
in CC#N	-16.7
in CC(=O)N(C)C	-18.2
in CC(C)=O	-17.3
in CC(C)CC(C)(C)C	-11.9
in CC(C)O	-13.6
in CCC(C)=O	-16.9
in CCCCC	-12.9
in CCCCCCC	-12.2
in CCCCCCCC	-12
in CCCCCCCCC=CCCCCCCCC(=O)OCC(COC(=O)CCCCCCCC=CCCCCCCCC)OC(=O)CCCCCCCC=CCCCCCCCC	-14.1
in CCCCCCCCCCCCCC	-11.2
in CCCCCCCCCCCCCCCC	-11.4
in CCCCCCCCCCCCO	-12.2
in CCCCCCCCN(CCCCCCCC)CCCCCCCC	-11.8
in CCCCCCCCO	-12.9
in CCCCCN(CCCCC)CCCCC	-12.5
in CCCCCO	-13.3
in CCCCCl	-14.9
in CCCCN(C=O)CCCC	-16.4
in CCCCN(CCCC)CCCC	-12
in CCCCO	-13.8
in CCCCOC	-15.8
in CCCCOCCCC	-13.4
in CCCOCCC	-14.7
in CCN1CCCC1=O	-17.9
in CCN(CC)C(C)=O	-17.9
in CCNC(C)=O	-15.6
in CCNC=O	-15.5
in CCO	-14.1
in CCOC(=O)c1ccccc1C(=O)OCC	-14.7
in CCOC(C)=O	-16.9
in CCOCC	-16.2
in CN1CCCC1=O	-17.7
in CN1CCCCC1=O	-18.6
in CNC(C)=O	-15.6
in CO	-14.6
in COC(C)=O	-16.9
in CS(C)=O	-17.3
in Cc1ccc(C)cc1	-14.9
in Cc1cccc(C)c1	-15
in Cc1ccccc1C	-15
in ClC(Cl)(Cl)Cl	-14.1
in ClC(Cl)Cl	-15.1
in ClCCCl	-15.6
in Clc1ccccc1	-14.8
in N#Cc1ccccc1	-15.8
in NC=O	-11.1
in O	-5.52
in O=C1CCCCC1	-17.3
in [2H]O[2H]	-6.28

C=CC(C)(C)O
Settings	solvation free energy, 298 K [kJ/mol]
in O	-17.5

CNC=O
Settings	solvation free energy, 298 K [kJ/mol]
in C1CCCCC1	-16.2
in CC(C)=O	-30.8
in CCCCCCC	-15.4
in O	-37.1

Clc1ccc(Cl)c(-c2cc(Cl)ccc2Cl)c1
Settings	solvation free energy, 298 K [kJ/mol]
in CCCCCCCCO	-46.9
in O	-10.7

CC(C)OC(C)C
Settings	solvation free energy, 298 K [kJ/mol]
in Brc1cccc2ccccc12	-14.6
in CC(=O)N(C)C	-14.3
in CC(=O)OCc1ccccc1	-14.6
in CC(C)CC(C)(C)C	-15.8
in CCC(C)=O	-16.3
in CCC(C)Cl	-17.4
in CCC(C)O	-15.7
in CCCCCCCC	-16.1
in CCCCCCCCCCO	-14.4
in CCCCCCCCO	-15.2
in CCCCCl	-17.5
in CCCCN(C=O)CCCC	-14.6
in CCCCO	-15.7
in CCCO	-15.9
in CCN1CCCC1=O	-13.5
in CCN(CC)C(C)=O	-14.7
in CCNC(C)=O	-13.9
in CCNC=O	-13.5
in CN1CCCCC1=O	-13.7
in CN(C)C=O	-13.3
in CNC(C)=O	-13.6
in CNC=O	-12.7
in CO	-16
in ClC(Cl)(Cl)Cl	-17.7
in [2H]O[2H]	-6.53
in c1ccc2ncccc2c1	-14.4

CCCCCCCCCCCCCCCCCCO
Settings	solvation free energy, 298 K [kJ/mol]
in CC(C)O	-62.2
in CCC(C)=O	-57.5
in CCCCCCCCC=CCCCCCCCC(=O)OCC(COC(=O)CCCCCCCC=CCCCCCCCC)OC(=O)CCCCCCCC=CCCCCCCCC	-51.9
in CCCCCCCCCCO	-62.2
in CCCCCCCCO	-62.4
in CCCCCCO	-62.4
in CCCCOCCCC	-60.7
in CCOCC	-62.7
in O	-10.2

CCOC(=O)c1ccc(N)cc1
Settings	solvation free energy, 298 K [kJ/mol]
in CC(C)CCO	-46.2
in CCCC(C)O	-46.7

CC(C)CCOC=O
Settings	solvation free energy, 298 K [kJ/mol]
in O	-8.91

COc1ccccc1
Settings	solvation free energy, 298 K [kJ/mol]
in CCCCCCC	-22.4
in CCCCCCCCCCCCCCCC	-21.8
in CCCCCCCCO	-22.8
in O	-10.6
in [2H]O[2H]	-11

CC(=O)Oc1ccccc1C(=O)O
Settings	solvation free energy, 298 K [kJ/mol]
in C1CCOC1	-59.9
in C1COCCO1	-58.9
in CC(=O)CC(C)C	-55.1
in CC(=O)OC(C)C	-54.7
in CC(C)(C)O	-57.2
in CC(C)=O	-58.8
in CC(C)CCO	-55.9
in CC(C)CO	-55.4
in CC(C)O	-57
in CC(C)OC(C)C	-52
in CCC(C)=O	-57.3
in CCC(C)O	-56.7
in CCCC(=O)OC	-54.8
in CCCC(C)O	-55.8
in CCCCCCCCCCO	-54
in CCCCCCCO	-54.9
in CCCCCCO	-55.2
in CCCCCO	-55.6
in CCCCO	-56.3
in CCCCOC(C)=O	-54.7
in CCCO	-57
in CCO	-58.7
in CCOC(C)=O	-56.5
in CCOCC	-55.4
in CO	-59.1
in COC(C)(C)C	-55.4
in COC(C)=O	-56.9
